Assay [1] relates to primary stricturing CD patient-derived colonic fibroblasts. Put plainly: Fibrogenesis in CDSE-treated primary stricturing CD patient-derived colonic fibroblasts. In kind it is cell-based, human. The protocol:
Stricturing CD patient-derived primary colonic fibroblasts (CD-HIFs) were obtained from Cleveland Clinic via material transfer agreement (MTA2020-00000154) and under
Cleveland Clinic IRB directives (IRB #17-1167). Primary non-IBD patient-derived colonic fibroblasts (H6231) were purchased from Cell Biologics. All primary colonic fibroblasts were cultured in fibroblast medium (M2267, Cell Biologics). Human colonic CCD-18Co fibroblasts (ATCC) were cultured in minimal essential medium Eagle's medium (MEM) containing 10% fetal bovine serum and 1% penicillin-streptomycin 6, 20. All fibroblasts were grown to 80% confluence and then switched to serum-free media overnight for experiments.
For activation of protease-activated receptors (PARs), fibroblasts were pretreated with 0.8% DMSO, 10 μM PAR1 agonist TRAP-6 (HY-P0078, MCE), 10 μM PAR2 agonist SLIGKV-NH2 (Protease-Activated Receptor-2, amide, HY-P0283, MCE), or 0.4 μg/ml PAR2-activating protease recombinant cathepsin S (1183-CY-010, R&D Systems) for 30 minutes. For miR205-5p activation, fibroblasts were transfected with (30 picomoles/well) either control (YM00479902) or miR205-5p miRCURY LNA mimic (YM00472340) from Qiagen via Lipofectamine 3000 transfection reagent (L3000001, ThermoFisher) in Opti-MEM (#31985062, ThermoFisher) overnight. […]

The next assay concerns ERK1/2 phosphorylation. The assay is described as follows: Phospho-ERK1/2 ELISA in CCD-18Co fibroblasts. In kind it is cell-based, human. The protocol:
FIG. 27. Elafin inhibited ERK1/2 phosphorylation in intestinal fibroblasts via PAR2. (A) Serum starved CCD-18Co and primary stricturing CD patient-derived colonic fibroblasts were transiently transfected with either control siRNA or ZEB1 siRNA overnight, followed by treatment with 10 ng/ml TGF-β1 or 100 μg/ml stricturing CD patient-derived serum exosomes (CDSE) for 24 hours. (B) CCD-18Co fibroblasts were treated with DMSO, PAR1 inhibitor (SCH79797), or PAR2 inhibitor (GB88) for 2 hours. GB88 inhibited ERK1/2 phosphorylation. (C) CCD-18Co fibroblasts were pretreated with DMSO, PAR1 agonist, or PAR2 agonists for 30 minutes, followed by TGF-β1 10 ng/ml. Two hours later, elafin (1 μg/ml) and incubated for 2 hours. Elafin inhibited ERK1/2 phosphorylation, which was reversed by PAR2 agonist. […] Phospho-ERK1/2, ProCOL1A1, COL1A2, and ZEB1 protein were determined by ELISA. miR205-5p expression was determined by real-time RT-PCR. […]
FIG. 28. […] (D) Quantification of cathepsin S signals (B7-8) and control signals (A1-2 and E1-2) on the protease array using Bio-Rad Image Lab Software. […] Phospho-ERK1/2 was determined by ELISA. […] ProCOL1A1 and COL1A2 were determined by ELISA. […]
Background: An ELISA detects its analyte on a solid surface through an enzyme-linked reagent.

The values below come from patent publication US20230405078A1, “DETECTION AND TREATMENT OF INTESTINAL FIBROSIS” (THE REGENTS OF THE UNIVERSITY OF CALIFORNIA, priority 2020, published 2023).

Where no end group is shown, it is not given here.

In the case of “Elafin: small (6 kDa) human elastase-specific protease inhibitor and antimicrobial peptide; active form SEQ ID NO: 2 (AQEPVKGPVSTKPGSCPIILIRCAMLNPPNRCLKDTDCPGIKKCCEGSCGMACFVPQ; listed as Homo sapiens)”, the ProCOL1A1 protein expression result in assay [1] (CDSE-treated, Elafin 1 μg/ml) is given as “inhibited”. Moreover, the ERK1/2 phosphorylation result in the assay on ERK1/2 phosphorylation (CCD-18Co fibroblasts) is “inhibited”.

Regarding “SLIGKV-NH2 [PAR2 agonist, reference compound]”, the “effect on elafin-mediated inhibition of collagen expression” value in assay [1] (CDSE-conditioned primary human colonic fibroblasts) was “reversed”. In the assay with ERK1/2 phosphorylation (elafin 1 μg/ml, 2 hours), the “effect on elafin-mediated inhibition of ERK1/2 phosphorylation” value was “reversed”.
